Measured values: patent US12331026B2 (NiKang Therapeutics, Inc., priority 2022, dated 2025)

Each molecule was assayed against T1, CDK2 (Homo sapiens, UniProt P24941) (assay: Phospho-RB measurement in OVCAR3 cells (HTRF phospho-RB S807/811)). Settings: phosphorylation of RB protein at S807/811, HTRF, 24 h compound treatment, 0.3 to 10,000 nM, read-out: pRb (uM).
T1 construct: endogenous in cells; host or cells: OVCAR3 cells
Type: cell-based
Procedure, shortened: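 IC50 values come from four-parameter logistic fits of the DMSO-normalised 665/620 nm TR-FRET ratio for phospho-RB (S807/811). Antibody detection ran 4 h at room temperature.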

Row | SMILES | IC50
1 | CS(=O)(=O)[C@H]1CC[C@@H](Nc2nccc(-c3sc(C45CC(Cl)(C4)C5)nc3-c3cccc(NS(=O)(=O)c4c(F)cccc4C(F)(F)F)c3F)n2)CC1 [Example 146, N-(3-(2-(3-chlorobicyclo[1.1.1]pentan-1-yl)-5-(2-(((1s,4s)-4-(methylsulfonyl)cyclohexyl)amino)pyrimidin-4-yl)thiazol-4-yl)-2-fluorophenyl)-2-fluoro-6-(trifluoromethyl)benzenesulfonamide] | 0.2 µM
2 | CC1C2(CC(Nc3nccc(-c4sc(C56CC(C5)C6)nc4-c4cccc(NS(=O)(=O)c5c(F)cccc5F)c4F)n3)C2)C(C)S1(=O)=O (centres unmarked) [Example 154, N-(3-(2-(bicyclo[1.1.1]pentan-1-yl)-5-(2-((1,3-dimethyl-2,2-dioxido-2-thiaspiro[3.3]heptan-6-yl)amino)pyrimidin-4-yl)thiazol-4-yl)-2-fluorophenyl)-2,6-difluorobenzenesulfonamide] | 0.095 µM
3 | O=S1(=O)CC(N2CC3CCC(C2)N3c2nc(-c3cccc(NS(=O)(=O)c4c(F)cccc4F)c3F)c(-c3ccnc(NC4CC5(C4)CS(=O)(=O)C5)n3)s2)C1 [Example 45, N-(3-(5-(2-((2,2-dioxido-2-thiaspiro[3.3]heptan-6-yl)amino)-pyrimidin-4-yl)-2-(3-(1,1-dioxidothietan-3-yl)-3,8-diazabicyclo[3.2.1]octan-8-yl)thiazol-4-yl)-2-fluorophenyl)-2,6-difluorobenzenesulfonamide] | 4.14 µM
4 | O=S1(=O)CC2(CC(Nc3nccc(-c4sc(C56CC(Cl)(C5)C6)nc4-c4cccc(NS(=O)(=O)c5c(F)cccc5C(F)(F)F)c4F)n3)C2)C1 [Example 150, N-(3-(2-(3-chlorobicyclo[1.1.1]pentan-1-yl)-5-(2-((2,2-dioxido-2-thiaspiro[3.3]heptan-6-yl)amino)pyrimidin-4-yl)thiazol-4-yl)-2-fluorophenyl)-2-fluoro-6-(trifluoromethyl)benzenesulfonamide] | 0.17 µM
5 | N#CC12CCC(CC1)N2c1nc(-c2cccc(NS(=O)(=O)c3c(F)cccc3F)c2F)c(-c2ccnc(NC3CC4(C3)CS(=O)(=O)C4)n2)s1 [Example 54, N-(3-(2-(1-cyano-7-azabicyclo[2.2.1]heptan-7-yl)-5-(2-((2,2-dioxido-2-thiaspiro[3.3]heptan-6-yl)amino)pyrimidin-4-yl)thiazol-4-yl)-2-fluorophenyl)-2,6-difluorobenzenesulfonamide] | 0.2 µM
6 | O=S1(=O)C[C@@H]2[C@H](C1)[C@H]2Nc1nccc(-c2sc(N3C4CCC3CC(F)(F)C4)nc2-c2cccc(NS(=O)(=O)c3c(F)cccc3F)c2F)n1 [Example 115, N-(3-(2-(3,3-difluoro-8-azabicyclo[3.2.1]octan-8-yl)-5-(2-(((1R,5S,6r)-3,3-dioxido-3-thiabicyclo[3.1.0]hexan-6-yl)amino)pyrimidin-4-yl)thiazol-4-yl)-2-fluorophenyl)-2,6-difluorobenzenesulfonamide] | 0.05 µM
7 | O=S1(=O)C[C@@H]2[C@H](C1)[C@@H]2Nc1nccc(-c2sc(C34CCC(CC3)CC4)nc2-c2cccc(NS(=O)(=O)c3c(F)cccc3F)c2F)n1 [Example 119, N-(3-(2-(bicyclo[2.2.2]octan-1-yl)-5-(2-(((1R,5S,6s)-3,3-dioxido-3-thiabicyclo[3.1.0]hexan-6-yl)amino)pyrimidin-4-yl)thiazol-4-yl)-2-fluorophenyl)-2,6-difluorobenzenesulfonamide] | 1.34 µM
8 | O=S1(=O)CC2(CC(Nc3nccc(-c4sc(N5C6CCC5CN(CCC(F)(F)F)C6)nc4-c4cccc(NS(=O)(=O)c5c(F)cccc5F)c4F)n3)C2)C1 [Example 142, N-(3-(5-(2-((2,2-dioxido-2-thiaspiro[3.3]heptan-6-yl)amino)-pyrimidin-4-yl)-2-(3-(3,3,3-trifluoropropyl)-3,8-diazabicyclo-[3.2.1]octan-8-yl)thiazol-4-yl)-2-fluorophenyl)-2,6-difluorobenzenesulfonamide] | 0.32 µM
